Laboratory results from patent US20240360107A1, “AN EIF4A INHIBITOR WITH A NOVEL MECHANISM OF ACTION” (ARIZONA BOARD OF REGENTS ON BEHALF OF THE UNIVERSITY OF …, priority 2021, published 2024).
“Also recorded” adds a separate entry of the source.

Experiments:
eIF4A R311E mutant = biological target: T1, eIF4A R311E mutant (Homo sapiens, UniProt P60842, R311E); assay: malachite green ATPase assay, eIF4A mutant; format: biochemical
T1 construct: 6xHis with TEV protease site (N, cleaved yes); made in house; host or cells: E. coli BL21-CodonPlus
Description: (§1) Furthermore, eIF4A R311K and R311E mutants were produced and tested with compound 28. As expected, compound 28 had no potency toward R311E, as the positively charged arginine is replaced with a negatively charged glutamic acid that repels the carboxylic acid of compound 28. However, compound 28 also had no potency for eIF4A R311K, even though it still maintains its positive charge. This may be attributed to the inability of this lysine to simultaneously provide hydrogen bond donation and ionic interactions to compound 28 due to geometrical constraints. The molecular docking also predicted that the furan of 28 may form a hydrogen bond with T109, and the butyl group may lie within a small hydrophobic groove within the binding pocket (FIG. 6A). Nevertheless, mutations to R110, T158, and R311 causing drastic losses in potency of compound 28 provided strong evidence that this was the correct binding pocket and pose for compound 28. This site, wedged between each RecA-like domain of eIF4A, is a novel binding pocket that has never been accessed by an eIF4A inhibitor.
(§2) ATPase assay. Recombinant WT or mutant eIF4A was added to a clear bottom 384 well plate (Greiner) in ATPase buffer (20 mM Tris pH 7.4, 80 mM KCl, 2.5 mM MgCl2, 1 mM DTT, 1% glycerol). […] The solution was incubated for 5 minutes at room temperature and Absorbance at 660 nm was read on a SpectraMax iD5 plate reader (Molecular Devices).

eIF4A R311K mutant = biological target: T2, eIF4A R311K mutant (Homo sapiens, UniProt P60842, R311K); assay: malachite green ATPase assay, eIF4A mutant; format: biochemical
T2 construct: 6xHis with TEV protease site (N, cleaved yes); made in house; host or cells: E. coli BL21-CodonPlus
Description: as §1, §2

eIF4A = eIF4A (Homo sapiens, UniProt P60842); assay: Cellular Thermal Shift Assay (CETSA) in A549 cells; format: cell-based; design: endogenous in cells; host or cells: A549 cells; details: 90 min, 55° C., silvestrol 100 nM
Protocol: In CETSA, thermal stability of a protein is assessed by heating cells and then separating insoluble, aggregated, or denatured proteins from soluble proteins through supernatant/pellet fractionation. Levels of the protein of interest (eIF4A) remaining in the soluble fraction are then measured by western blot. The principle of CETSA is similar to differential scanning fluorimetry (DSF), in that thermal stability and solubility of a protein increases upon binding a ligand.
Cellular Thermal Shift Assay (CETSA). A549 cells were seeded into wells in 6-well plates and on the following day were exposed to 28 or silvestrol (100 nM) for 90 min. Cells were harvested, resuspended in 50 μL DMEM, and dispensed into thin-walled PCR tubes. Cells were subjected to 3 min of heat at 55° C. in a thermocycler (miniPCR). After heating, cells were left to cool for 3 min and then snap-frozen on dry ice. Cells were subjected to 3 rapid freeze thaws with 15 seconds of vortexing after each thaw. After the first thaw, 1 μL of a dissolved Pierce protease inhibitor tablet (ThermoFisher—A32963) was added to the cell lysate. Cell lysates were centrifuged at 20,000×g for 20 min. […] All immunoblot images were taken using the Azure 600 imaging system (Azure Biosystems) and analyzed using ImageJ 1.51s (NIH). […]

[1] = test system: HCV IRES-dependent translation of Renilla luciferase; assay: in vitro translation of bicistronic luciferase reporter in rabbit reticulocyte lysate, Renilla luciferase; format: biochemical; details: Cycloheximide 600 μM, Silvestrol 100 nM
Description: (§3) A bicistronic luciferase reporter ([…]) (FIG. 7B, top) was programmed into rabbit reticulocyte lysates, cellular extracts capable of performing both cap-dependent and Hepatitis C virus (HCV) internal ribosomal entry site (IRES)-mediated translation. eIF4A is the enzymatic driver of cap-dependent translation and is not involved in translation through HCV IRES. Compounds that inhibit eIF4A should inhibit cap-dependent translation of firefly (FF) luciferase while leaving IRES-mediated translation of Renilla (Ren) luciferase relatively unaffected. The inhibitory activities of cycloheximide, silvestrol, and 28 were assessed in this in vitro translation assay (FIG. 7B, bottom). […] The ability of compound 28 to preferentially target cap-dependent translation in a similar manner as silvestrol provides promising evidence that 28 inhibits eIF4A and not other proteins in the general translational machinery.
(§4) The dual-luciferase reporter plasmid pSP/(CAG)33/FF/HCV/Ren-pA51 was linearized with BamHI and subsequently in vitro transcribed using the Promega mMessage mMachine SP6 transcription kit, according to manufacturer's specifications. RNA was precipitated with LiCI and resuspended in H2O for use in in vitro translation experiments. Rabbit reticulocyte lysate (RRL) (nuclease-treated, Promega) was used to assess inhibitory effects of 28 on translation of the dual-reporter. Briefly, a reaction consisting of 50% RRL, 30 ng/μL reporter RNA, 10 μM Amino Acid Mixture Minus Methionine, 10 μM Amino Acid Mixture Minus Leucine, […], 1 U/μL RNAseOut (Thermo), and drug (final DMSO concentration 1%) were incubated at 30° C. for 90 minutes. The reaction was quenched with 50 μL 1× Passive Lysis Buffer (Promega), 10 μL of the mix was transferred to a 96-well white plate (Cellstar), and the Dual-Reporter Luciferase Assay System (Promega) was used to generate luminescence according to the manufacturer's instructions. Luminescence was detected using a plate reader (BioTek HT Synergy).

[2] = test system: cap-dependent translation of firefly luciferase; assay: in vitro translation of bicistronic luciferase reporter in rabbit reticulocyte lysate, firefly luciferase; format: biochemical; details: Cycloheximide 600 μM, Silvestrol 100 nM
Description: as §3, §4

Chain of eIF4A (P60842 2-406): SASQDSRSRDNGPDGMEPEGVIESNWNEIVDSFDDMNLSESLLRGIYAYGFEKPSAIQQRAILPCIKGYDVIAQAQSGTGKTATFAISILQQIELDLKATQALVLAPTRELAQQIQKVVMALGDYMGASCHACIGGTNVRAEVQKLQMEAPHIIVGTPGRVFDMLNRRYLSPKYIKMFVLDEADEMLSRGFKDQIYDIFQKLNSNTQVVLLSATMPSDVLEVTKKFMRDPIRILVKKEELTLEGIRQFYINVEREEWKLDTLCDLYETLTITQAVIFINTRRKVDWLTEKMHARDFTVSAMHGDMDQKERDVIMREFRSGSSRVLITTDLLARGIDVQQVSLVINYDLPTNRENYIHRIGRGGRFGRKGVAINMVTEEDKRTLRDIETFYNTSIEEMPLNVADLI
T2 sequence (P60842 whole entry R311K): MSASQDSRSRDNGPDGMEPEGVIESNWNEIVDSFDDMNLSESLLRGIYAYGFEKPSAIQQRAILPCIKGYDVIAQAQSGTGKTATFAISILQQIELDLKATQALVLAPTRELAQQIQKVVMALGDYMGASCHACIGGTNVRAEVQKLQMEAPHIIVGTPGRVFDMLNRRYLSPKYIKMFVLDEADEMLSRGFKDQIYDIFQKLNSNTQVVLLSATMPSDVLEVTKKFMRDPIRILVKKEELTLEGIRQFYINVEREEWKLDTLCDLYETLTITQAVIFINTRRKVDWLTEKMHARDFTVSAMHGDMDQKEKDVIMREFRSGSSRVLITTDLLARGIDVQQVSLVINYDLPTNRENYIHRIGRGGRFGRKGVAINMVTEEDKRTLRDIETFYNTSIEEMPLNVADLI
T1 sequence (P60842 whole entry R311E): as the sequence (P60842 whole entry R311K) above, with K311E counted along it

CCCCc1ccc(-c2ccc(-c3cc(C(=O)O)c4cc([N+](=O)[O-])ccc4n3)o2)cc1 [Compound 28, 2-(5-(4-butylphenyl)furan-2-yl)-6-nitroquinoline-4-carboxylic acid]
potency against eIF4A mutant in ATPase assay (eIF4A R311E mutant): no potency
potency against eIF4A mutant in ATPase assay (eIF4A R311K mutant): no potency
thermal stability of eIF4A in cells (CETSA) (eIF4A): dose-dependent increase in thermal stability of eIF4A; also recorded: engages eIF4A in cells
effect on HCV IRES-mediated translation (Renilla luciferase) [1]: only show a modest effect on HCV IRES-dependent translation of Renilla luciferase
effect on cap-dependent translation (firefly luciferase) [2]: inhibit cap-dependent translation of firefly luciferase; also recorded: inhibits cap-dependent translation
